Measured values as given in patent publication US7271188B2, “Imidazolidine derivatives” (Chugai Seikayu Kabushiki Kaisha, priority 2003, dated 2007).
Like-named read-outs stand apart in the source and are kept apart here.

Assays:
[1] = target: T1, human androgen receptor (Homo sapiens, UniProt P10275); assay: Test Example 2: antagonist effect, androgen receptor reporter gene assay in 11A11B2 cells with 0.1 nmol/L DHT; format: cell-based
T1 construct: expressed in transfected cells; host or cells: HeLa cells (clone 11A11B2), stably co-transfected with MMTV-Luc-Hyg reporter
T1 sequence (P10275 1-920): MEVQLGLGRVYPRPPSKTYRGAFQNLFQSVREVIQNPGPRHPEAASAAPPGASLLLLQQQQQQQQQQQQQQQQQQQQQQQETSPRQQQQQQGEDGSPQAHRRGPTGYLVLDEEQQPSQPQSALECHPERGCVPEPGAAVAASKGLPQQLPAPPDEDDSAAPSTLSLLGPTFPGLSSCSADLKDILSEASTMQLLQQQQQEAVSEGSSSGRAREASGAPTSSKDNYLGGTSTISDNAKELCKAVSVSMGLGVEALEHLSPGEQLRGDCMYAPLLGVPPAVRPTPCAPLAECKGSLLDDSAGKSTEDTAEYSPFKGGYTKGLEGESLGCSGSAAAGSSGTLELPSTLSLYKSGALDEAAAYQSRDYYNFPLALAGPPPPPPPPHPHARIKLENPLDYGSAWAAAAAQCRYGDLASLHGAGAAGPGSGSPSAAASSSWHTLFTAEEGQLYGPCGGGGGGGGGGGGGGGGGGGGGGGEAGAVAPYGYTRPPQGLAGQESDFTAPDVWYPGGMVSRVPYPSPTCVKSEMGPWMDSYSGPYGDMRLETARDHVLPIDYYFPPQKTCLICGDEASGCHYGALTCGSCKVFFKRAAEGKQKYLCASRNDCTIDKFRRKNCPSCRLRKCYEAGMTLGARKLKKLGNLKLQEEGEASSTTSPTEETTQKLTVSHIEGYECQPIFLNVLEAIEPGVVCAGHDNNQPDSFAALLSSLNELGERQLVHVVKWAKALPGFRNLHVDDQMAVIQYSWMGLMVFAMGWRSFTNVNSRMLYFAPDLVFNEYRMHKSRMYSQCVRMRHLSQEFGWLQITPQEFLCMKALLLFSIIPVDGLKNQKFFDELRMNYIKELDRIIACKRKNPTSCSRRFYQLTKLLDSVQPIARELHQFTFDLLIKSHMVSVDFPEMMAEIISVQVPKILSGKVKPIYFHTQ
Experimental: (§1) HeLa cells (purchased from Dai-Nippon Seiyaku K. K.) were cultured overnight in Dulbecco's Modified Eagle Medium containing no phenol red, but containing 3% charcoal-treated fetal bovine serum (hereafter referred to as DCC-FBS) (this medium is hereafter referred to as phenol-red-free DMEM). An MMTV-Luc-Hyg vector (reporter plasmid with […], containing an androgen response element and a hygromycin resistance gene: a vector obtained by substituting the chloramphenicol acetyl transferease gene of a GM-CAT vector (A.T.C.C No. 67282) purchased from the A.T.C.C. for the firefly luciferase gene, and inserting a hygromycin resistance gene), and pSG5-hAR-neo (human androgen receptor expression vector: a vector having an androgen receptor gene under the control of the SV40 promoter, and having a neomycin resistance gene inserted as a drug resistance gene) were transfected into the HeLa cells using an FuGENE™ 6 Transfection Reagent (obtained from Roche).
(§2) The clone cells thus obtained (11A11B2 cells) were maintained and propagated using DMEM containing 400 μg/mL neomycin, 200 μg/mL hygromycin and 10% FBS, and were propagated using phenol-red-free DMEM containing 10% DCC-FBS three to four days prior to the performance of an androgen receptor reporter gene assay.
The 11A11B2 cells were inoculated in a white clear-bottomed 96-well microplate (COSTAR) so that the cell concentration was 1.0×10^4/well, and were cultured overnight using phenol-red-free DMEM containing 3% DCC-FBS (hereafter referred to as the assay medium). The assay medium containing DHT was added so that the final concentration of DHT was 0.1 nmol/L, and samples of the assay medium containing the compounds of the examples or compounds of the comparative examples were added so that the final concentrations of the compounds of the examples or compounds of the comparative examples were 1, 10, 100, 1,000 and 10,000 nmol/L, respectively. After culturing for 48 hours, the transcription activity values were measured. The transcription activity was measured using a Bright-Glo™ Luciferase Assay System (Promega).
(§3) The transcription activity rates of the compounds of the examples were calculated from the transcription activity measured by the abovementioned method, with the transcription activity value obtained at 0.1 nmol/L DHT taken as 100%, and the transcription activity value in the case of the assay medium alone taken as 0%.
Accordingly, the value obtained by subtracting the transcription activity rate of Test Example 1 (Investigation of Agonist Activity) from the transcription activity rate of Test Example 2 (Investigation of Antagonist Activity) was used to calculate the compound concentration at which a transcription activity of 50% was shown (IC50 value). The IC50 value was calculated from a linear equation for two points on either side of 50%.

[2] = target: T1, human androgen receptor; assay: Test Example 1: agonist effect, androgen receptor reporter gene assay in 11A11B2 cells; format: cell-based; conditions: compound concentration showing transcription activity of 5% (0.1 nmol/L DHT = 100%, assay medium alone = 0%), 48 hours
Experimental: as §1, §2
The 11A11B2 cells were inoculated in a white clear-bottomed 96-well microplate (COSTAR) so that the cell concentration was 1.0×10^4/well, and were cultured overnight using phenol-red-free DMEM containing 3% DCC-FBS (hereafter referred to as the assay medium). Samples of the assay medium containing the compounds of the examples and compounds of the comparative examples were added so that the final concentrations of the compounds of the examples and compounds of the comparative examples were 1, 10, 100, 1,000 and 10,000 nmol/L (however, in the case of the compounds of Examples 1 and 2, the compounds were added so that the final concentrations were 1, 10, 100, 1,000, 10,000 and 100,000 nmol/L), and the cells were cultured for 48 hours, after which the transcription activity value was measured. The transcription activity was measured using a Bright-Glo™ Luciferase Assay System (Promega).
as §3, with “0%. The compound concentration showing a transcription activity of 5% (EC5 value) was calculated from a linear equation for two points on either side of 5%.” for “0%.”

[3] = reports; cited from earlier work
[4] = target: androgen receptor (Homo sapiens, UniProt P10275); conditions: at a concentration of 10 μmol/L; cited from earlier work
[5] = prostate cancer patients treated with flutamide; cited from earlier work
[6] = test system: castrated rats; conditions: continuously administered to castrated rats for two weeks; cited from earlier work
[7] = concentration giving 50% transcription activity after subtracting the Test Example 1 agonist rate, 0.1 nmol/L DHT, 11A11B2 cells, 48 hours, read-out: IC50

Q: Which IC50 [1] does the source give for `CN1C(=S)N(c2ccc(C#N)c(C(F)(F)F)c2)C(=O)C1(C)C` [Comparative Example 1, 4-(5-oxo-2-thioxo-3,4,4-trimethyl-1-imidazolidinyl)-2-trifluoromethylbenzonitrile, reference compound] here?
A: 0.001 µM

Q: What about the EC5 [2] of the same compound?
A: 0.08 nM

Q: Which IC50 [1, 7] does the source give for `CC(=O)NCCN1C(=S)N(c2ccc(C#N)c(C(F)(F)F)c2)C(=O)C1(C)C` [Comparative Example 2, 4-[3′-(2″-N-acetylaminoethyl)-4′,4′-dimethyl-5′-oxo-2′-thioxo-1′-imidazolidinyl]-2-trifluoromethylbenzonitrile, reference compound] here?
A: 0.8 µM

Q: What about the EC5 [2] of the same compound?
A: 3000 nM

Q: Which side effects [3] does the source give for `CC(O)(CS(=O)(=O)c1ccc(F)cc1)C(=O)Nc1ccc(C#N)c(C(F)(F)F)c1` (stereo not drawn) [Comparative Example 3, bicalutamide] here?
A: liver toxicity

Q: What does the source list for `CC(C)(O)C(=O)Nc1ccc([N+](=O)[O-])c(C(F)(F)F)c1` [Comparative Example 4, hydroxyflutamide]?
A: androgen receptor transcription activity [4]: increase in androgen receptor transcription activity; concentration in the blood [5]: several; EC5 [2]: 10 nM

Q: For `CC1(C)C(=O)N(c2ccc(C#N)c(C(F)(F)F)c2)C(=S)N1CCCS(N)(=O)=O` [Example 1, 4-[3′-(3″-aminosulfonylpropyl)-4′,4′-dimethyl-5′-oxo-2′-thioxo-1′-imidazolidinyl]-2-trifluoromethylbenzonitrile], which IC50 [1] is on record?
A: 0.2 µM

Q: And the EC5 [2]?
A: 20000 nM

Q: For `CC1(C)C(=O)N(c2ccc(C#N)c(C(F)(F)F)c2)C(=S)N1CCCCS(N)(=O)=O` [Example 2, 4-[3′-(4″-aminosulfonylbutyl)-4′,4′-dimethyl-5′-oxo-2′-thioxo-1′-imidazolidinyl]-2-trifluoromethylbenzonitrile], which IC50 [1, 7] is on record?
A: 0.6 µM

Q: What about the EC5 [2] of the same compound?
A: >100000 nM

Q: What does the source list for `CC1(C)C(=O)N(c2ccc(C#N)c(C(F)(F)F)c2)C(=S)N1CCCCCCS(N)(=O)=O` [Example 3, 4-[3′-(6″-aminosulfonylhexyl)-4′,4′-dimethyl-5′-oxo-2′-thioxo-1′-imidazolidinyl]-2-trifluoromethylbenzonitrile]?
A: IC50 [1, 7]: 0.2 µM; EC5 [2]: 3000 nM

Q: For `CC1(C)C(=O)N(c2ccc(C#N)c(C(F)(F)F)c2)C(=S)N1CCCCCS(N)(=O)=O` [Example 7, 4-[3′-(5″-aminosulfonylpentyl)-4′,4′-dimethyl-5′-oxo-2′-thioxo-1′-imidazolidinyl]-2-trifluoromethylbenzonitrile], which IC50 [1, 7] is on record?
A: 0.9 µM

Q: What about the EC5 [2] of the same compound?
A: >10000 nM

Q: For `CN(C)S(=O)(=O)CCCCN1C(=S)N(c2ccc(C#N)c(C(F)(F)F)c2)C(=O)C1(C)C` [Example 8, 4-[3′-(4″-N,N-dimethylaminosulfonylbutyl)-4′,4′-dimethyl-5′-oxo-2′-thioxo-1′-imidazolidinyl]-2-trifluoromethylbenzonitrile], which IC50 [1] is on record?
A: 0.1 µM

Q: What about the EC5 [2] of the same compound?
A: 2000 nM

Q: Which results are given for `CN(C)S(=O)(=O)CCCCCN1C(=S)N(c2ccc(C#N)c(C(F)(F)F)c2)C(=O)C1(C)C` [Example 10, 4-[3′-(5″-N,N-dimethylaminosulfonylpentyl)-4′,4′-dimethyl-5′-oxo-2′-thioxo-1′-imidazolidinyl]-2-trifluoromethylbenzonitrile]?
A: IC50 [1, 7]: 0.2 µM; EC5 [2]: 2000 nM

Q: Which results are given for `CNS(=O)(=O)CCCCN1C(=S)N(c2ccc(C#N)c(C(F)(F)F)c2)C(=O)C1(C)C` [Example 16, 4-[3′-(4″-N-methylaminosulfonylbutyl)-4′,4′-dimethyl-5′-oxo-2′-thioxo-1′-imidazolidinyl]-2-trifluoromethylbenzonitrile]?
A: IC50 [1, 7]: 0.7 µM; EC5 [2]: >10000 nM

Q: What does the source list for `CC1(C)C(=O)N(c2ccc(C#N)c(C(F)(F)F)c2)C(=S)N1CCS(N)(=O)=O` [Example 18, 4-[3′-(2″-aminosulfonylethyl)-4′,4′-dimethyl-5′-oxo-2′-thioxo-1′-imidazolidinyl]-2-trifluoromethylbenzonitrile]?
A: IC50 [1]: 0.6 µM; EC5 [2]: 7000 nM

Q: With `CC(=O)O[C@]1(C(C)=O)CC[C@H]2[C@@H]3C=C(Cl)C4=CC(=O)CC[C@]4(C)[C@H]3CC[C@@]21C` [chlormadinone acetate] as the compound, how does the “weight of the prostate gland” value [6] read?
A: increase in the weight of the prostate gland

Q: With `CC(=O)O[C@]1(C(C)=O)CC[C@H]2[C@@H]3C=C(Cl)C4=CC(=O)[C@@H]5C[C@@H]5[C@]4(C)[C@H]3CC[C@@]21C` [cyproterone acetate] as the compound, how does the “weight of the prostate gland” value [6] read?
A: increase in the weight of the prostate gland

Q: For `CC(C)C(=O)Nc1ccc([N+](=O)[O-])c(C(F)(F)F)c1` [flutamide], which side effects [3] is on record?
A: liver toxicity
